Experimental data taken from PubChem BioAssay (NCI).
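Compound exposure: 48 hours, 5 concentrations, 96-well plates. TGI denotes the concentration required for complete inhibition of growth.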

What was measured:
Experiment in all cases: inhibition of tumour cell growth, NCI panel, 48 h
HL-60(TB) leukemia = system: HL-60(TB) leukemia
SNB-75 CNS = system: SNB-75 CNS
SN12C renal = system: SN12C renal
SF-539 CNS = system: SF-539 CNS
SR leukemia = system: SR leukemia
HOP-92 NSCLC = system: HOP-92 NSCLC
ACHN renal = system: ACHN renal
UACC-257 melanoma = system: UACC-257 melanoma
TK-10 renal = system: TK-10 renal
HT29 colon = system: HT29 colon
IGROV1 ovarian = system: IGROV1 ovarian
CCRF-CEM leukemia = system: CCRF-CEM leukemia
HCT-15 colon = system: HCT-15 colon
OVCAR-5 ovarian = system: OVCAR-5 ovarian
OVCAR-8 ovarian = system: OVCAR-8 ovarian
CAKI-1 renal = system: CAKI-1 renal
HCC-2998 colon = system: HCC-2998 colon
DLD-1 colon = system: DLD-1 colon
U251 CNS = system: U251 CNS
LOX IMVI melanoma = system: LOX IMVI melanoma

Structure (SMILES)	TGI (HL-60(TB) leukemia)	TGI (SNB-75 CNS)	TGI (SN12C renal)	TGI (SF-539 CNS)	TGI (SR leukemia)	TGI (HOP-92 NSCLC)	TGI (ACHN renal)	TGI (UACC-257 melanoma)	TGI (TK-10 renal)	TGI (HT29 colon)	TGI (IGROV1 ovarian)	TGI (CCRF-CEM leukemia)	TGI (HCT-15 colon)	TGI (OVCAR-5 ovarian)	TGI (OVCAR-8 ovarian)	TGI (CAKI-1 renal)	TGI (HCC-2998 colon)	TGI (DLD-1 colon)	TGI (U251 CNS)	TGI (LOX IMVI melanoma)
CCc1cccc(CC)c1NC(=O)C1=C(C)NC(C)=C(C(=O)Nc2c(CC)cccc2CC)C1c1ccc2c(c1)OCO2	26.4 µM	38.1 µM	28.7 µM	37.8 µM	65 µM	32.1 µM	39 µM	35.1 µM	> 100 µM	30.4 µM	44.2 µM	20.3 µM	26.8 µM	31.7 µM	34.7 µM	52 µM	36.7 µM	50.3 µM	27.4 µM	26 µM
O=S(=O)(O)c1cc(N=Nc2cc(S(=O)(=O)O)c3cccnc3c2O)ccc1/C=C/c1ccc(N=Nc2cc(S(=O)(=O)O)c3cccnc3c2O)cc1S(=O)(=O)O	56.5 µM	> 100 µM	> 100 µM	> 100 µM	51.1 µM	> 100 µM	> 100 µM	> 100 µM	> 100 µM	> 100 µM	> 100 µM	52.5 µM	> 100 µM	> 100 µM	> 100 µM	> 100 µM	> 100 µM	> 100 µM	> 100 µM	> 100 µM
CCCCCCCCCCCC(=O)c1c(O)cccc1O	43.6 µM	31.9 µM	34.7 µM	32.4 µM	49 µM	32.3 µM	33.8 µM	30.8 µM	92.4 µM	45 µM	32.4 µM	62.8 µM	33.4 µM	28.5 µM	33.5 µM	56.7 µM	34.3 µM	33.8 µM	34 µM	33.7 µM
